Format in all cases: functional, cell-based
What all share (details): pig, llc-pk1, 20 µM

Data set [1] concerns the target T1, ATP-dependent translocase ABCB1 (Homo sapiens, UniProt P08183). Nature of the data set: TP_TRANSPORTER: increase in Vinblastine uptake (Vinblastine: 0.02 uM, HMF: 20 uM) in MDR1-expressing LLC-PK1 cells.
The target of data set [2] is T1, ATP-dependent translocase ABCB1. The data set can be described thus: TP_TRANSPORTER: increase in Vinblastine uptake (Vinblastine: 0.02 uM, Nobiletin: 20 uM) in MDR1-expressing LLC-PK1 cells.
Data set [3] shares this target. Nature of the data set: TP_TRANSPORTER: increase in Vinblastine uptake (Vinblastine: 0.02 uM, Tangeretin: 20 uM) in MDR1-expressing LLC-PK1 cells.

T1 sequence (P08183 whole entry): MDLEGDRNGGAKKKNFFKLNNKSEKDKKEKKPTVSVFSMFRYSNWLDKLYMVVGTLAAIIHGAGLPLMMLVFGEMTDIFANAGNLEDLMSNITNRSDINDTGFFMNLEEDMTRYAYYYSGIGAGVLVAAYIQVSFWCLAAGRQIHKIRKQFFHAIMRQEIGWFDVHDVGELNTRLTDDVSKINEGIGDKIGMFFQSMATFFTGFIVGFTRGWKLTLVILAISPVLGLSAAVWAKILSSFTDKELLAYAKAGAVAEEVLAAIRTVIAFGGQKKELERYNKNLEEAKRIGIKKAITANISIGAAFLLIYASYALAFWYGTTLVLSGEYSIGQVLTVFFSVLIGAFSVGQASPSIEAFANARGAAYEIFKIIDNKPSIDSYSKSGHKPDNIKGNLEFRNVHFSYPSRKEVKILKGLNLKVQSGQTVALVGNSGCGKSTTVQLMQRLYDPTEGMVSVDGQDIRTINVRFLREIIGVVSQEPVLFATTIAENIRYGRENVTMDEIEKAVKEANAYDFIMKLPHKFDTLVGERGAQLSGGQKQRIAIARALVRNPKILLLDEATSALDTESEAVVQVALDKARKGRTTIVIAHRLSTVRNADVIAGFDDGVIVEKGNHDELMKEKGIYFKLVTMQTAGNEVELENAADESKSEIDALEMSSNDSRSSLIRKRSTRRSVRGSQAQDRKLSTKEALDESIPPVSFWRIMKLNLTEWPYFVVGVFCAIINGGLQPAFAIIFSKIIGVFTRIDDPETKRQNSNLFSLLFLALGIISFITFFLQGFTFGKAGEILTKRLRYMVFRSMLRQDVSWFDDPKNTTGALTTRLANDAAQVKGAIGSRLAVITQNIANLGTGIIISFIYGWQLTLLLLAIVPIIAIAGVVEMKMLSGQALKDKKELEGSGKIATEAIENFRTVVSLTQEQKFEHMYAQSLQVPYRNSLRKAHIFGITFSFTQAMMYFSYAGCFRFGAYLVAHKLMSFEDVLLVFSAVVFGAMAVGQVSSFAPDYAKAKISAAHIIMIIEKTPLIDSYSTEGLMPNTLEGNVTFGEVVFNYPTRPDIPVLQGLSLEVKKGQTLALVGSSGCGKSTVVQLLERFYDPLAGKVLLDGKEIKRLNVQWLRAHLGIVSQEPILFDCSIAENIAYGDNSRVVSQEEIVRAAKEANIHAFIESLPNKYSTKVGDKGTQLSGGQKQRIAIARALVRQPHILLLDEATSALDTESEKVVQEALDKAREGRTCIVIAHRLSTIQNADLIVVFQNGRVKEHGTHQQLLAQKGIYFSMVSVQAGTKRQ

Regarding `COc1ccc(-c2oc3c(OC)c(OC)c(OC)c(OC)c3c(=O)c2OC)cc1OC` [3,5,6,7,8,3',4'-HEPTAMETHOXYFLAVONE], in data set [1], the Activity came out at 935%.

For the molecule `COc1ccc(-c2cc(=O)c3c(OC)c(OC)c(OC)c(OC)c3o2)cc1OC` [NOBILETIN], the Activity in data set [2] is 604%.

For `COc1ccc(-c2cc(=O)c3c(OC)c(OC)c(OC)c(OC)c3o2)cc1` [TANGERETIN], the Activity in data set [3] is recorded as 175%.

Values taken from ChEMBL document CHEMBL2073917, “Polymethoxylated flavones in orange juice are inhibitors of P-glycoprotein but not cytochrome P450 3A4” (J Pharmacol Exp Ther, 2000).
